Reference: article PMC10099595, “Multimodal 4-arylchromene derivatives with microtubule-destabilizing, anti-angiogenic, and MYB-inhibitory activities” (Cancer Drug Resistance, 2023)
Where two headings read alike, the source gives them in different places.

Key:
[1] = molecular target: T1, MYB (Homo sapiens, UniProt P10242, K503R/K527R); assay: Luciferase-dependent MYB activity assay (HEK-MYB-Luc reporter cells); type: cell-based; settings: HEK-293 reporter cells, 16 h; read-out: IC50 inhibition of MYB activity
T1 construct: expressed in transfected cells; host or cells: HEK-293 (HEK-MYB-Luc reporter cell line)
Experimental: Compounds were tested using the HEK-MYB-Luc reporter cell line, which allows a doxycycline-dependent induction of MYB expression and harbors an MYB-dependent luciferase reporter plasmid, as previously described. After 16 h of substance treatment (0.0001-3 µM), luciferase activities were analyzed as described.

[2] = test system: EA.hy926 endothelial hybrid cells; settings: cited from earlier work
[3] = test system: 518A2 melanoma cells; settings: cited from earlier work
[4] = test system: HCT-116 colon carcinoma cells; settings: cited from earlier work
[5] = test system: HCT-116 p53-/- colon carcinoma cells; settings: cited from earlier work
[6] = test system: U-87 glioblastoma cells; settings: read-out: IC50 U87, cited from earlier work
[7] = test system: HT-29 colon carcinoma cells; settings: cited from earlier work
[8] = test system: KB-V1^Vbl cervix carcinoma cells; settings: without verapamil, cited from earlier work
[9] = test system: HeLa cervix carcinoma cells; set-up: method as in Köhler et al.[20]; settings: positive control; ref Köhler et al.[20]; cited from earlier work
[10] = test system: MCF-7 breast carcinoma cells; settings: cited from earlier work
[11] = test system: tested cancer and hybrid cell lines; assay: MTT assay, average over all tested cancer and hybrid cell lines; settings: for IC50: Homo sapiens; for SI (IC50 HDFa cells/IC50 tumor cell average): selectivity index, HDFa vs tumor cell average
Experimental: An 3-(4, 5-dimethylthiazol-2-yl)-2, 5-diphenyl tetrazolium bromid (MTT) assay was used for antiproliferative studies. Cancer cells (5 × 10^4 cells/mL, 100 μL/well) were placed in 96-well plates (10 × 10^4 cells/mL for HDFA and U87 cells), and the cells were incubated for 24 h at 5% CO2 and 95% humidity. Then, cells were treated with test compounds (at various concentrations) or solely with DMSO as a negative control for 72 h. Then, 12.5 μL of a 0.5% MTT solution in phosphate-buffered saline (PBS) was added to the cells, followed by incubation for 2 h at 37 °C. After centrifugation of the plates (300 × g, 5 min, 4 °C), the medium was discarded, and 25 μL of DMSO containing 10% SDS and 0.6% acetic acid was added, followed by incubation at 37 °C for at least 1 h. Formazan absorbance at λ = 570 nm was measured using a Tecan infinite F200 microplate reader and corrected for the background (λ = 630 nm). The 50% inhibitory concentration (IC50) values were calculated from dose-response curves (means ± SD, four independent experiments) compared to DMSO-treated control cells, which were set to 100%. GraphPad Prism 9 was used for curve-fitting.
The selectivity index (SI) was calculated as a measure of selectivity toward cancer cells compared to non-malignant cells.

[12] = test system: EA.hy926 endothelial hybrid cells; assay: MTT antiproliferative assay, EA.hy926; type: cell-based; settings: Homo sapiens, EA.hy 926, 72 h
Excerpt: (§1) The following cell lines were used: 518A2 melanoma (Department of Radiotherapy, Medical University of Vienna, Austria)[15], HeLa cervix carcinoma, KBV1^Vbl (ACC-149 cervix carcinoma, MCF7 [ACC-115]) breast carcinoma, U-87 glioblastoma, HT-29 (ACC-299), HCT-116 (ACC-581) and HCT-116p53-/- colon carcinoma, EA.hy926 (ATCC® CRL-2922^TM) endothelial hybrid cells, and HDFa (ATCC® PCS-201-012^TM) adult human dermal fibroblasts. […] Only mycoplasma-free cultures were used.

[13] = test system: 518A2 melanoma cells; assay: MTT antiproliferative assay, 518A2; type: cell-based; settings: Homo sapiens, 72 h
Excerpt: as §1

[14] = test system: HCT-116 colon carcinoma cells; assay: MTT antiproliferative assay, HCT-116; type: cell-based; settings: Homo sapiens, 72 h
Excerpt: as §1

[15] = test system: HCT-116 p53-/- colon carcinoma cells; assay: MTT antiproliferative assay, HCT-116 p53-/-; type: cell-based; settings: Homo sapiens, 72 h
Excerpt: as §1

[16] = test system: U-87 glioblastoma cells; assay: MTT antiproliferative assay, U87; type: cell-based; settings: Homo sapiens, 72 h
Excerpt: as §1

[17] = test system: HT-29 colon carcinoma cells; assay: MTT antiproliferative assay, HT-29; type: cell-based; settings: Homo sapiens, 72 h
Excerpt: as §1

[18] = test system: KB-V1^Vbl cervix carcinoma cells; assay: MTT antiproliferative assay, KB-V1Vbl (with or without verapamil); type: cell-based, human; settings: for IC50: Homo sapiens, KB-V1/Vbl, 72 h, read-out: IC50 KB-V1^Vbl
Excerpt: as §1

[19] = test system: HeLa cervix carcinoma cells; assay: MTT antiproliferative assay, HeLa; type: cell-based; settings: Homo sapiens, 72 h
Excerpt: as §1

[20] = test system: MCF-7 breast carcinoma cells; assay: MTT antiproliferative assay, MCF-7; type: cell-based; settings: Homo sapiens, MCF7, 72 h
Excerpt: as §1

[21] = test system: HDFa adult human dermal fibroblasts; assay: MTT cytotoxicity assay, non-malignant HDFa; type: cell-based; settings: 72 h, non-malignant cells
Excerpt: as §1

[22] = test system: zebrafish larvae; assay: Zebrafish angiogenesis assay (SIV area); type: in vivo; settings: 48 h treatment; for effect on SIV growth (angiogenesis): zebrafish larvae 24 hpf, 50-1000 nM
Experimental: Transgenic zebrafish (Tg(fli1:EGFP, casper mutant) were bred at 28 °C.[16] After fertilization, the eggs were transferred to E3-medium (5 mm NaCl, 0.17 mm KCl, 0.33 mm CaCl, 0.33 mm MgSO4, 0.01% methylene blue, pH 7.2), followed by incubation for 24 h. The chorion was manually removed, and the larvae were treated with test compounds or solvent in six-well plates (30 fish per concentration, 5 mL/well) for 48 h. The fluorescent vasculature was documented with a Leica MZ10F and Zeiss AxioCam MRrc. To quantify the angiogenesis, the sub-intestinal vein (SIV) area was measured using ImageJ and expressed as means ± SD with the control set to 100%. The significance of SIV reduction through substance treatment was assessed using one-way analysis of variance (ANOVA), *P < 0.05; **P < 0.01; ***P < 0.001; ****P < 0.0001, with Dunnett´s multiple comparison test (GraphPad Prism 9).

[23] = test system: 518A2 melanoma cells; assay: Cell-cycle analysis (FACS, propidium iodide); type: cell-based, human; settings: 518A2 cells, 25 nM, 24 h
Experimental: 518A2 melanoma cells (10 × 10^4 cells/mL, 3 mL/well) were cultivated in six-well plates for 24 h. After the treatment with test compounds (10 and 25 nm), C-A4 (10 and 25 nm), or DMSO (vehicle) for an additional 24 h, the cells were trypsinized, centrifuged (300 × g, 5 min, 4 °C), and fixed in 70% EtOH for min. 24 h. For FACS measurement, cells were washed in PBS and stained with propidium iodide solution (50 µg/mL PI, 50 µg/mL RNase A in 0.1% sodium citrate) for 30 min at 37 °C. The DNA content of at least 10000 single cells was determined using a Beckmann Coulter Cytomics FC500 flow cytometer (λex = 488 nm, λem = 570 nm). CXP software (Beckman Coulter) was used to analyze the cells in the cell cycle phases (sub-G1, G1, S, G2/M).

[24] = test system: microtubule cytoskeleton of 518A2 melanoma cells; assay: Microtubule immunofluorescence staining; type: cell-based, human; settings: 518A2 cells, 100 nM
Experimental: The cells were treated with test compounds and controls (25 and 100 nm) for 0.5, 1, 3, and 6 h and washed with cytoskeletal buffer (100 nm PIPES, 3 nm MgCl2, 138 nm KCl, 2 nm EGTA, 300 nm sucrose, pH 6.8). Fixation and permeabilization were performed for 5 min with 3.7% formaldehyde and 0.2% Triton X-100 in a cytoskeletal buffer. The cells were fixed with cold EtOH for 10 s, rehydrated in PBS, and blocked with 1% bovine serum albumin in PBS for 30 min. The microtubules were stained for 1 h with primary (anti-α-tubulin, mouse monoclonal antibody) and secondary antibodies (goat anti-mouse IgG-AF-546, Invitrogen) and washed with PBS between each treatment. Nuclei were stained using DAPI (1 µg/mL in PBS) for 30 min. The coverslips were placed in Roti®-Mount FluorCare. Microtubules (λex = 488 nm, λem = 507 nm) and nuclei (λex = 358 nm, λem = 461 nm) were documented by confocal microscopy (Leica TCS SP5 confocal microscope, 630 × magnification) and edited with ImageJ.

[25] = positive control, ref Köhler et al.[20]
[26] = read-out: Average IC50 value of the tested cancer and hybrid cell lines (Ø IC50)
[27] = read-out: Average IC50 value of the tested cancer and hybrid cell lines (Ø IC50), average of all cell lines of Table 2

T1 sequence (P10242 whole entry K503R/K527R): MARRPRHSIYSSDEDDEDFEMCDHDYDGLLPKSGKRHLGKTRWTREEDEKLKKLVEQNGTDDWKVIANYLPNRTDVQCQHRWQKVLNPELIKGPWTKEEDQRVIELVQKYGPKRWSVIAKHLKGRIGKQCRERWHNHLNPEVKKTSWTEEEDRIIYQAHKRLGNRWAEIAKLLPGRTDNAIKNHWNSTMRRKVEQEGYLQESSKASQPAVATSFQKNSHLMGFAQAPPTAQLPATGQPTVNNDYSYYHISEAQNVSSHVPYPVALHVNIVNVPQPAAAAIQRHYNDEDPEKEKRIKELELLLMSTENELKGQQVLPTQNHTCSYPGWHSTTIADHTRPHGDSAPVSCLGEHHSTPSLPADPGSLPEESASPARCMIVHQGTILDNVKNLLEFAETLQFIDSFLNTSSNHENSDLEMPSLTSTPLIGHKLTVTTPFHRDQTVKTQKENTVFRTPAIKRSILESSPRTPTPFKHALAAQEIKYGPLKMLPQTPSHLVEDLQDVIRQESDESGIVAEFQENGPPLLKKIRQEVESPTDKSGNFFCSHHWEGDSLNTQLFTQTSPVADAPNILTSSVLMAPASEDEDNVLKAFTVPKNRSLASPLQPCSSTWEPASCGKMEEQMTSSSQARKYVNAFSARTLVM

| Compound | IC50 [1] [nM] | IC50 [11, 26] [nM] | IC50 [11, 27] [nM] | IC50 [12] [nM] | IC50 [13] [nM] | IC50 [14] [nM] | IC50 [15] [nM] | IC50 [16] [nM] | IC50 [17] [nM] | IC50 ([18]; MTT, without verapamil) [nM] | IC50 [19] [nM] | IC50 [20] [nM] | IC50 [21] [nM] | effect on SIV growth (angiogenesis) [22] | SI (IC50 HDFa cells/IC50 tumor cell average) [11] | other results |
| --- | --- | --- | --- | --- | --- | --- | --- | --- | --- | --- | --- | --- | --- | --- | --- | --- |
| COc1cc(C2C(C#N)=C(N)Oc3c2ccc2ccccc32)cc(OC)c1OC (stereo not shown) [1B] | 9.07 | 53 | – | – | – | – | – | – | – | – | – | – | – | – | – | IC50 [2, 25]: 20 ± 1 nM; IC50 [3, 25]: 30 ± 0.1 nM; IC50 [4, 25]: 20 ± 1.9 nM; IC50 [5, 25]: 30 ± 2 nM; IC50 [6, 25]: 5 ± 0.2 nM; IC50 [7, 25]: 300 ± 40 nM; IC50 ([8]; ref Köhler et al.[20]): 30 ± 1 nM; IC50 [9]: 10 ± 1 nM; IC50 [10, 25]: 34 ± 2.5 nM |
| COc1c(I)cc(C2C(C#N)=C(N)Oc3c2c(=O)oc2ccccc32)cc1I (stereo not shown) [1C] | – | – | > 500 | – | – | – | – | – | – | – | – | – | – | – | – | IC50 ([2]; ref Köhler et al.[13]): 2800 ± 70 nM; IC50 ([3]; ref Köhler et al.[13]): 1500 ± 100 nM; IC50 ([4]; ref Köhler et al.[13]): 3100 ± 100 nM; IC50 ([5]; ref Köhler et al.[13]): 2900 ± 60 nM; IC50 ([6]; ref Köhler et al.[13]): 5500 ± 300 nM; IC50 ([7]; ref Köhler et al.[13]): 2500 ± 200 nM; IC50 ([8]; ref Köhler et al.[13]): 3700 ± 60 nM; IC50 ([10]; ref Köhler et al.[13]): 3400 ± 200 nM |
| COc1ccc2c(c1)OC(N)=C(C#N)C2c1cc(Cl)c(OC)c(OC)c1 (stereo not shown) [2A, 2-Amino-3-cyano-4-(3’-chloro-4’, 5’-dimethoxyphenyl)-7-methoxy-4H-chromene] | 2.81 ± 0.3 | – | 53 | 0.4 ± 0.06 | 4 ± 0.3 | 70 ± 5 | 70 ± 5 | 20 ± 3 | 300 ± 20 | 6 ± 0.5 | 10 ± 0.4 | 40 ± 7 | 11500 | inhibited angiogenesis to an extent comparable to the known inhibitor axitinib | 219 | melting point: 224 to 225 °C |
| COc1ccc2c(c1)OC(N)=C(C#N)C2c1cc(Br)c(OC)c(Br)c1 (stereo not shown) [2E, 2-Amino-3-cyano-4-(3’, 5’-dibromo-4’-methoxyphenyl)-7-methoxy-4H-chromene] | – | 374 | – | 20 ± 1 | 20 ± 2 | 20 ± 2 | 40 ± 3 | 20 ± 2 | 300 ± 2 | – | 30 ± 3 | 80 ± 3 | 22200 | – | 59 | IC50 [18]: 3200 ± 300 nM; fold lower IC50 values combined with verapamil ([18]; KB-V1^Vbl cells, verapamil 1 µM vs none): 320 fold; G2/M cell-cycle arrest (in words) [23]: only a slight increase in G2/M phase cells |
| COc1ccc2c(c1)OC(N)=C(C#N)C2c1cc(I)c(OC)c(I)c1 (stereo not shown) [2F, 2-Amino-3-cyano-4-(3,5-diiodo-4-methoxyphenyl)-7-methoxy-4H-chromene] | 2.31 ± 0.4 | – | 43 | 20 ± 2 | 20 ± 0.4 | 30 ± 5 | – | 50 ± 10 | 60 ± 1 | 70 ± 7 | 30 ± 3 | 80 ± 4 | > 50000 | no significant change in blood vessel growth | – | cells arrested before or during mitosis (G2/M) [23]: about 74%; time to change/breakdown of the microtubule cytoskeleton [24]: 1 h; concentration above which toxic effect occurs ([22]; zebrafish larvae): above 250 nM |
